# Measured values as given in patent US6277834A, “Agents for relieving side effects of adrenal cortex hormone” (Senju Pharmaceutical Co. Ltd., priority 1998, dated 2001).
# Counter-ions that a name gives are not always drawn.
# Legend:
# [1] = Body weight, thymus and spleen weight in hairless mice after repeated topical application (reduction of side effects of an adrenocortical hormone); conditions: EPC-K (0.5%) administered concurrently with betamethasone valerate (0.012%), two weeks
# Procedure: A test was carried out to examine the effect of the present compound to reduce side effects of an adrenocortical hormone.
# (§1) 0.012% betamethasone valerate (dissolved in methanol).
# 0.012% betamethasone valerate +0.5% EPC-K (dissolved in methanol).
# 10-week old female HR-1 hairless mice purchased from SLC Japan were used for the test. One hundred μl of the test materials were applied to the respective mice on the whole area of their back skin. This procedure was repeated once a day for two weeks, and then the body weight and the weight of the thymus and the spleen were determined.
# [2] = system: croton oil-induced edema of the right auricles of the mice; test: Croton oil-induced ear edema in mice (antiinflammatory effect); format: in vivo, ICR mice (10-week old male)
# Procedure: A test was performed for examining antiinflammatory effect observed by concurrent use of the present compound and an adrenocortical hormone. In addition, dose-response test was carried out for the adrenocortical hormone.
# as §1
# 0.5% EPC-K (dissolved in methanol).
# Twenty μl of croton oil (6%) dissolved in acetone was applied on the outer surface of the right auricles of the mice to induce edema. Fifteen minutes later, 20 μl of one of the test materials was applied to each of the right auricles.
# Four hours after the application of the test materials, the thickness of the right auricles of the mice were measured using a dial thickness gauge and edema rates were determined by comparing their thickness with that before induction.
# [3] = Acute toxicity (LD50); conditions: in vivo, rat
# [4] = Table 4, 4 h after 20 μl topical, 0.5% EPC-K, 0.012% betamethasone valerate, or both, mean ± S.D. (n = 23-27), methanol 116.1 ± 23.3
# [5] = Table 4, edema inhibition 4 h after 20 μl topical, 0.5% EPC-K, 0.012% betamethasone valerate, or both, n = 23-27
SMILES,atrophy of spleen (by betamethasone valerate) [1],atrophy of thymus (by betamethasone valerate) [1],body weight reduction (by betamethasone valerate) [1],"Edema rate(%) [2, 4]","Inhibition rate(%) [2, 5]",LD50 ([3]; iv),LD50 ([3]; po),"Edema rate(%) ([2]; Table 5 dose-response, 0.012% betamethasone valerate, 4 h, mean ± S.D. (n = 8-9), methanol 138.8 ± 18.5)","Inhibition rate(%) ([2]; Table 5 dose-response, 0.012% betamethasone valerate, 4 h, n = 8-9)","Edema rate(%) ([2]; Table 5 dose-response, 0.040% betamethasone valerate, 4 h, mean ± S.D. (n = 8-9), methanol 138.8 ± 18.5)","Inhibition rate(%) ([2]; Table 5 dose-response, 0.040% betamethasone valerate, 4 h, n = 8-9)","Edema rate(%) ([2]; Table 5 dose-response, 0.12% betamethasone valerate, 4 h, mean ± S.D. (n = 8-9), methanol 138.8 ± 18.5)","Inhibition rate(%) ([2]; Table 5 dose-response, 0.12% betamethasone valerate, 4 h, n = 8-9)",concentration of betamethasone valerate that would give an effect comparable to 0.012% betamethasone valerate plus 0.5% EPC-K ([2]; calculated from the dose-response test (Table 5))
"Cc1c(C)c2c(c(C)c1OP(=O)(O)OC1=C(O)[C@@H]([C@@H](O)CO)OC1=O)CCC(C)(CCCC(C)CCCC(C)CCCC(C)C)O2 (mixture of isomers) [EPC-K, potassium salt of phosphodiester of L-ascorbic acid and DL-α-tocopherol]",suppressed,suppressed,suppressed,109.1 ± 26.3%,6.0%,> 100 mg/kg,> 5000 mg/kg,,,,,,,
"CCCCC(=O)O[C@]1(C(=O)CO)[C@@H](C)C[C@H]2[C@@H]3CCC4=CC(=O)C=C[C@]4(C)[C@@]3(F)[C@@H](O)C[C@@]21C [Betamethasone valerate, betamethasone valerate]",,,,87.3 ± 21.7%,27.9%,,,101.6 ± 15.3%,26.8%,86.5 ± 30.3%,37.7%,52.8 ± 13.3%,62.0%,0.088%
